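Method: 48-hour compound exposure of cells in 96-well plates, five concentrations, linear interpolation of endpoints. The concentration for 50% growth inhibition is given as GI50.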 The source made the active and inactive calls. Rule as the data show it: active = GI50 up to about 1.1 µM and inactive = higher.
What was measured:
Test in all cases: NCI anticancer screen, dose series, 48 h
HT-29 = system: HT-29
NCI-H460 = system: NCI-H460
NCI-H23 = system: NCI-H23
A498 = system: A498
COLO 205 = system: COLO 205
OVCAR-5 = system: OVCAR-5
UACC-257 = system: UACC-257
MDA-N = system: MDA-N
SNB-19 = system: SNB-19
Hs-578T = system: Hs-578T
CAKI-1 = system: CAKI-1
786-0 = system: 786-0
SK-OV-3 = system: SK-OV-3
OVCAR-3 = system: OVCAR-3
MDA-MB-231 = system: MDA-MB-231
LOX IMVI = system: LOX IMVI
MDA-MB-435 = system: MDA-MB-435
DU-145 = system: DU-145
SK-MEL-28 = system: SK-MEL-28
SNB-75 = system: SNB-75
HOP-62 = system: HOP-62
OVCAR-4 = system: OVCAR-4
SN12C = system: SN12C
MOLT-4 = system: MOLT-4
U-251 = system: U-251
SK-MEL-5 = system: SK-MEL-5
HCC 2998 = system: HCC 2998
SW-620 = system: SW-620
NCI-H226 = system: NCI-H226
SF-268 = system: SF-268
SF-295 = system: SF-295
RPMI-8226 = system: RPMI-8226
BT-549 = system: BT-549
SK-MEL-2 = system: SK-MEL-2
NCI/ADR-RES = system: NCI/ADR-RES
HCT-15 = system: HCT-15
OVCAR-8 = system: OVCAR-8
IGROV-1 = system: IGROV-1
UACC-62 = system: UACC-62
TK-10 = system: TK-10
CCRF-CEM = system: CCRF-CEM
SR = system: SR
EKVX = system: EKVX
KM12 = system: KM12
PC-3 = system: PC-3
SF-539 = system: SF-539
A549 = system: A549
M14 = system: M14
Malme-3M = system: Malme-3M
NCI-H522 = system: NCI-H522
ACHN = system: ACHN
RXF 393 = system: RXF 393
T47D = system: T47D
HCT-116 = system: HCT-116
HOP-92 = system: HOP-92
HL-60 = system: HL-60
UO-31 = system: UO-31
MCF7 = system: MCF7
K562 = system: K562

Measured: GI50

O=c1[nH]c2cc3[nH]c4ncccc4c(=O)c3cc2[nH]1
inactive: HT-29 > 10 µM | NCI-H460 > 10 µM | NCI-H23 > 10 µM | A498 > 10 µM | COLO 205 > 10 µM | OVCAR-5 > 10 µM | UACC-257 > 10 µM | MDA-N > 10 µM | SNB-19 > 10 µM | Hs-578T > 10 µM | CAKI-1 > 10 µM | 786-0 > 10 µM | SK-OV-3 > 10 µM | OVCAR-3 > 10 µM | MDA-MB-231 > 10 µM | LOX IMVI > 10 µM | MDA-MB-435 > 10 µM | DU-145 > 10 µM | SK-MEL-28 > 10 µM | SNB-75 > 10 µM | HOP-62 > 10 µM | OVCAR-4 > 10 µM | SN12C > 10 µM | MOLT-4 > 10 µM | U-251 > 10 µM | SK-MEL-5 > 10 µM | HCC 2998 > 10 µM | SW-620 > 10 µM | NCI-H226 > 10 µM | SF-268 > 10 µM | SF-295 > 10 µM | RPMI-8226 > 10 µM | BT-549 > 10 µM | SK-MEL-2 > 10 µM | NCI/ADR-RES > 10 µM | OVCAR-8 > 10 µM | IGROV-1 > 10 µM | UACC-62 > 10 µM | TK-10 > 10 µM | CCRF-CEM > 10 µM | SR > 10 µM | EKVX > 10 µM | KM12 > 10 µM | PC-3 > 10 µM | SF-539 > 10 µM | A549 > 10 µM | M14 > 10 µM | Malme-3M > 10 µM | NCI-H522 > 10 µM | ACHN > 10 µM | RXF 393 > 10 µM | T47D > 10 µM | HCT-116 > 10 µM | HOP-92 > 10 µM | HL-60 > 10 µM
> 10 µM: HCT-15

CO[C@@]12C[C@@H](C)[C@]34O[C@H]3C[C@]3(C)O[C@]43CC1=C(C)C(=O)O2
inactive: HT-29 > 100 µM | NCI-H460 > 100 µM | NCI-H23 > 100 µM | UO-31 > 100 µM | MCF7 > 100 µM | A498 > 100 µM | COLO 205 > 100 µM | OVCAR-5 > 100 µM | UACC-257 > 100 µM | MDA-N > 100 µM | SNB-19 > 100 µM | Hs-578T > 100 µM | CAKI-1 > 100 µM | 786-0 > 100 µM | SK-OV-3 > 100 µM | OVCAR-3 > 100 µM | MDA-MB-231 > 100 µM | LOX IMVI > 100 µM | MDA-MB-435 > 100 µM | DU-145 > 100 µM | SK-MEL-28 > 100 µM | OVCAR-4 > 100 µM | SN12C > 100 µM | U-251 > 100 µM | SK-MEL-5 > 100 µM | HCC 2998 > 100 µM | SW-620 > 100 µM | NCI-H226 > 100 µM | SF-268 > 100 µM | SF-295 > 100 µM | RPMI-8226 > 100 µM | BT-549 > 100 µM | SK-MEL-2 > 100 µM | NCI/ADR-RES > 100 µM | OVCAR-8 > 100 µM | IGROV-1 38.8 µM | UACC-62 > 100 µM | TK-10 > 100 µM | EKVX > 100 µM | KM12 > 100 µM | PC-3 > 100 µM | SF-539 > 100 µM | A549 > 100 µM | M14 > 100 µM | Malme-3M > 100 µM | NCI-H522 > 100 µM | ACHN > 100 µM | T47D > 100 µM | HCT-116 > 100 µM | HOP-92 > 100 µM | K562 > 100 µM
active: MOLT-4 < 0.01 µM
> 100 µM: HCT-15

— ChEMBL document CHEMBL1201862, “PubChem BioAssay data set” (2004)
